Measured values as given in PMC12406198, “Decadentate Acyclic Chelators for Lanthanum Radiopharmaceuticals” (Journal of Medicinal Chemistry, 2025).
Read-outs that look alike come from different tables or passages of the source.

Tests used:
[1] = 0.15 M NaCl; ref footnote a; cited from earlier work
[2] = Ligand protonation constants by pH-potentiometric titration; assay type: physicochemical; conditions: sum of literature protonation constants of related ligands
[3] = literature value, cited from earlier work
[4] = Stability constants of La^3+ complexes by pH potentiometry; assay type: physicochemical; conditions: −log[La^3+]free for [L] = 10 μM and [La^3+] = 1 μM at pH 7.4 and 25 °C; from literature constants
Description: The stability constants of the La^3+ complexes were determined using pH potentiometry (I = 0.15 NaCl). A significant amount of the metal ion is not complexed by the TPADAC^4– ligand at the beginning of the titration at pH 1.7 (∼20%), which allows for stability constant determination using potentiometry. In the case of TPAEN^4– the amount of free La^3+ was small (∼4%), but the stability constants could be determined by fitting the titration data using both 1:1 and 1:2 (TPAEN^4–:La^3+) stoichiometries (Figure S1, Supporting Information). The TPADAC^4– ligand also forms complexes with 1:1 and 1:2 stoichiometries (Figure S2, Supporting Information).
The thermodynamic stability of the complexes at physiologically relevant pH was assessed by calculating pLa values, defined as −log[La^3+]free for [L] = 10 μM and [La^3+] = 1 μM at pH 7.4 and 25 °C following the recommendation of Raymond. This is a result of the high stability constants (log K LaL) that characterize the formation of these complexes, as well as the relatively low basicity of these ligands. Indeed, cyclohexyl derivatives TPADAC^4– and CHXOCTAPA^4– display considerably higher basicity than the ethyl analogues, as indicated by the Σ log K i ^H (i = 1–5) values shown in Table . Similarly, DTPA and DO3A derivatives are characterized by rather high basicities, which results in relatively low pLa values.
The pH-potentiometric titrations were carried out with a Methrohm 785 DMP titrator using a Metrohm-6.0233.100 combined electrode. The titrated solutions (5.000 mL) were thermostated at 25 °C and stirred and kept under inert gas atmosphere (N2) to avoid the effect of CO2. The pH-calibration of the electrode was performed using KH-phthalate (pH = 4.005) and borax (pH = 9.177) buffers. The concentrations of the ligand stock solutions were determined by pH-potentiometric titration. The protonation constants of the TPAEN^4– (in the pH range of 2.19–12.00 a total of 213 data pairs by titrating a 2.72 mM a ligand solution) and TPADAC^4– (in the pH range of 1.88–11.85 a total of 208 data pairs by titrating a 2.32 mM ligand solution), the stability and protonation constants of the complexes formed with La^3+ and the formation constants of their dinuclear complexes were determined by pH-potentiometric titration. The metal-to-ligand concentration ratios were 1:1 and 2:1. For the 1:1 ratio a total of 240 data pairs were recorded for a H4TPAEN concentration of 2.29 mM in the pH range of 1.77–11.86, while a total of 222 data pairs were collected in the pH range 1.72–11.85 for a 2.72 mM solution of H4TPADAC. For the 2:1 ratio we collected 259 data pairs for a 2.31 mM solution of H4TPAEN in the pH range of 1.73–11.82, and 259 data pairs for a 2.71 mM concentration of H4TPADAC in the pH range of 1.70–11.85. The calculation of [H^+] from the measured pH values was performed with the use of the method proposed by Irving et al. by titrating a 0.01 M HCl solution (I = 0.15 M NaCl) with a standardized NaOH solution. The differences between the measured and calculated pH values were used to obtain the [H^+] concentrations from the pH-data obtained in the titrations. The ionic product of water was determined from the same experiment in the pH range 11.25–11.85. The protonation and stability constants were calculated from the titration data with the PSEQUAD program. The quality of the fits was assessed with the fitting parameter (FP) calculated by PSEQUAD, which is defined as 2 FP=∑i=1n(Vi,calc−Vi,meas)^2/n−k

O=C(O)CN(CCN(CC(=O)O)Cc1cccc(C(=O)O)n1)Cc1cccc(C(=O)O)n1 [OCTAPA^4–, 6,6′-((ethane-1,2-diylbis((carboxymethyl)azanediyl))bis(methylene))dipicolinic acid]
log K LaL [1]: 19.92
Σ log K i ^H (i = 1–5) [2]: 22.20
log K 1 ^H ([3]; ref footnote a): 8.52
log K 2 ^H ([3]; ref footnote a): 5.40
log K 3 ^H ([3]; ref footnote a): 3.65
log K 4 ^H ([3]; ref footnote a): 2.97
log K 5 ^H ([3]; ref footnote a): 1.66
log K 1 ^H ([3]; ref footnote b): 8.58
log K 2 ^H ([3]; ref footnote b): 5.43
log K 3 ^H ([3]; ref footnote b): 3.75
log K 4 ^H ([3]; ref footnote b): 3.08
log K 5 ^H ([3]; ref footnote b): 2.21
log K 6 ^H ([3]; ref footnote b): 1.61 ^b
pLa [4]: 19.7
